Results: patent US4780466A, “Arylpiperazinylalkoxy derivatives of cyclic imides” (Hoechst-Roussel Pharmaceuticals, Inc., priority 1988, dated 1988)
Counter-ions that a name gives are not always drawn.

Columns and labels:
Type in all cases: in vivo
[1] = tested on: mice; assay: 2-phenyl-1,4-benzoquinone-induced writhing test in mice (analgesic activity); conditions: Mus musculus, sc, read-out: Phenylquinone Writhing ED50
Source text: Compounds of the present invention are also useful as analgesic agents due to their ability to alleviate pain in mammals. […] Exptl. Biol. Med., 95,729 (1957)]

[2] = tested on: mice; assay: Climbing mice assay (antipsychotic activity, apomorphine-induced climbing); conditions: Mus musculus; ip, 30 minutes prior to apomorphine 1.5 mg/kg s.c.; CK-1 male mice
Experimental: Antipsychotic activity is determined in the climbing mice assay by methods similar to those described by P. Protais, et al., Psychopharmacol., 50, 1 (1976) and B. Costall, Eur. J. Pharmacol., 50, 39, (1978).
The subject CK-1 male mice (23-27 grams) are group-housed under standard laboratory conditions. The mice are individually placed in wire mesh stick cages (4'×4" by 10") and are allowed one hour for adaptation and exploration of the new environment. Then apomorphine is injected subcutaneously at 1.5 mg/kg, a dose causing climbing in all subjects for 30 minutes. Compounds to be tested for antipsychotic activity are injected intraperitoneally 30 minutes prior to the apomorphine challenge at a screening dose of 10 mg/kg.
For evaluation of climbing, 3 readings are taken at 10, 20 and 30 minutes after apomorphine administration according to the following scale:
4 paws on bottom (no climbing)
2 paws on the wall (rearing)
4 paws on the wall (full climb)
Mice consistently climbing before the injection of apomorphine are discarded.
With full-developed apomorphine climbing, the animals are hanging onto the cage walls, rather motionless, over longer periods of time. By constrast, climbs due to mere motor stimulation usually last only a few seconds.
The climbing scores are individually totaled (maximum score: 6 per mouse over 3 readings) and the total score of the control group (vehicle intraperitoneally; apomorphine subcutaneously) is set to 100%. ED50 values with 95% confidence limits, calculated by a linear regression analysis of some of the compounds of this invention are presented in Table 1.

[3] = tested on: rats; assay: Geller-conflict paradigm with rats (anxiolytic activity); conditions: 10 mg/kg i.p.; pretreat interval usually one-half hour; male rats
Source text: Compounds I of the present invention are also useful as anxiolytic agents. […] See Geller, Irving and Seifter, Psychopharmacologia Col. 1, 482-492 (1962). Male rats are used as test subjects. They are housed individually and food and water are available ad libitum until they are 300 to 400 grams prior to the start of training. Subsequently they are food deprived until their body weight is reduced to approximately 80% of original and it is maintained at this level by a restricted food diet.
The programming and test equipment consists of solid state devices, shockers and cages within sound-attentuated environmental enclosures. The data is recorded on both solid state print-out counters and cumulative recorders. The cages are equipped with a house-light, a single-lever, cue-lights, a liquid dipper, a speaker and a grid-floor connected to a shocker. Sweetened condensed milk delivered by the liquid-dipper serve as the positive reinforcement for all subjects.
The subjects are trained to lever-press for the milk reward in two distinct response-reward sections. In the anxiety or "conflict" segment, signaled by onset of both tone and cue-lights, a dipper of milk is delivered in response to each lever-press (CRF schedule of reinforcement). However lever presses during this period are also accompanied by a 40 m sec pulse of aversive footshock through the grid-floor. […]

O=C1CC2(CCCC2)CC(=O)N1OCCCN1CCN(c2nsc3ccccc23)CC1 [Example 11, 8-[3-[4-(1,2-Benzisothiazol-3-yl)-1-piperazinyl]propyloxy]-8-azaspiro[4.5]decan-7,9-dione hydrochloride hemihydrate]
ED50 [1]: 0.9 mg/kg
ED50 [2]: 5.7 mg/kg

Cc1cccc(N2CCN(CCCON3C(=O)CC4(CCCC4)CC3=O)CC2)c1 [Example 5, 8-[3-[4-(3-Methylphenyl)-1-piperazinyl]propyloxy]-8-azaspiro[4.5]decan-7,9-dione hydrochloride hemihydrate]
Geller CRF ratio [3]: 7.5

COc1ccccc1N1CCN(CCCON2C(=O)CC3(CCCC3)CC2=O)CC1 [8-[3-[4-(2-Methoxyphenyl)-1-piperazinyl-propyloxy]-8-azaspiro[4.5]decan-7,9-dione hydrochloride hemihydrate]
ED50 [1]: 1.1 mg/kg

CC(C)=CCN1CCC2(C)c3cc(O)ccc3CC1C2C (centres unmarked) [Pentazocine, reference compound]
ED50 [1]: 1.3 mg/kg

CNC1=Nc2ccc(Cl)cc2C(c2ccccc2)=[N+]([O-])C1 [Chlorodiazepoxide, reference compound]
Geller CRF ratio [3]: 3.6

CN1CCN(C2=Nc3cc(Cl)ccc3Nc3ccccc32)CC1 [Clazapine, reference compound]
ED50 [2]: 8.1 mg/kg

COc1cccc(N2CCN(CCCON3C(=O)CC4(CCCC4)CC3=O)CC2)c1 [Example 8, 8-[3-[4-(3-Methoxyphenyl)-1-piperazinyl]propyloxy]-8-azaspiro-[4.5]decan-7,9-dione hydrochloride hemihydrate]
ED50 [2]: 10.9 mg/kg
